Laboratory results reported in patent publication US4565814A, “Pyridazine derivatives having a psychotropic action and compositions” (priority 1983, dated 1986).
Where two headings read alike, the source gives them in different places.

Legend:
[1] = test system: CD1 (Charles River) female mice; experiment: Despair behaviour (Porsolt forced-swim immobility), intraperitoneal; type: in vivo, mouse; details: Table 8, 1 hour before test, ++ significant (Student test)
Method: The principle of this test is as follows: when a mouse is placed in a narrow vessel filled with water, it struggles and then, after 2 to 4 minutes, it becomes immobile and floats on its abdomen, with its back hunched and its back paws tucked under the body, and it only makes the few movements necessary to keep its head above the water. This is the so-called despair reaction. Certain psychotropic drugs, in particular antidepressants, lengthen the time for which the mouse struggles. The following protocol was selected: The products to be studied were administered intraperitoneally 1 hour before the test. For the test, the animals are placed in a narrow vessel (10×10×10 cm) filled with water to a height of 6 cm, the temperature being 24° C. plus or minus 2° C. The animals are left in the water for 6 minutes and the time for which the animal remains immobile between the 2nd and 6th minutes is measured. The activity of the substance is the greater, the shorter this time. Each substance was studied on a batch of 10 mice. The results are the average of at least two experiments.

[2] = test system: reserpine-induced ptosis in CD1 (Charles River) female mice; experiment: Antagonism of reserpine-induced ptosis, intraperitoneal; type: in vivo; details: Mus musculus, ip, i.p., reserpine 2 mg/kg i.v., read 1 hour after reserpine
Method: ANTAGONISM OF RESERPINE-INDUCED PTOSIS
This test, which is described by GOURET (Journal de pharmacologie Paris 1973, 4 (1), 105-128), was carried out on CD1 (Charles River) female mice weighing 20 g plus or minus 1 g. Reserpine causes ptosis 1 hour after its intravenous administration; certain antidepressants oppose this ptosis.
The following protocol was selected:
The substances to be studied were administered intraperitoneally. The reserpine is administered intravenously at the same time, at a dose of 2 mg/kg.

[3] = test system: CD1 Charles River female mice with unilateral lesion of the striatum; experiment: Rotational behaviour after unilateral 6-hydroxydopamine lesion of the striatum, intraperitoneal; type: in vivo, mouse; details: for Rotational behaviour, intraperitoneal administration (change of rotations vs control): Table 8, 1 hour after administration; for Rotational behaviour of mice (intraperitoneal administration): Table 9, decrease: minus sign printed at end of the dose line, * p < 0.01, Student test
Method: CD1 Charles River female mice weighing from 20 to 24 g first undergo unilateral lesion of the striatum by the stereotaxic injection of 6-hydroxydopamine at a dose of 8 μg per animal. One week after this operation, the product is administered intraperitoneally to groups of 7 mice. The number of rotations is evaluated over 2 minutes, 1 hour after the administration of the product. Rotations on the same side as the lesion are counted as positive and those on the opposite side are counted as negative.

mice = experiment: in vivo; type: in vivo; details: i.p., mortality noted for 24 hours
Method: (§1) The products to be studied were administered intraperitoneally in increasing doses to batches of 10 mice.
(§2) The 50% lethal dose, that is to say the dose causing the […] of 50% of the animals studied, is determined from the results obtained for each of the products studied.

in vivo = type: in vivo; details: mouse, in vivo, ip; Table 9; i.p.; mortality noted for 24 hours; read-out: Toxicity, intraperitoneal administration, LD50
Method: as §1, §2

[4] = Table 8, read-out: Reserpine-induced ptosis, intraperitoneal administration, ED50
[5] = Table 9, read-out: Test for the antagonism of reserpine-induced ptosis, intraperitoneal administration, ED50
[6] = 2 mg/kg i.p., ++ significant (Student test)

Row | Compound | Despair behaviour, intraperitoneal administration (change of immobility time) ([1]; 5 mg/kg i.p.) [%] | ED50 [2, 4] [mg/kg] | ED50 [2, 5] [mg/kg] | Rotational behaviour, intraperitoneal administration (change of rotations vs control) ([3]; 0.125 mg/kg i.p., ++ significant (Student test)) [%] | Rotational behaviour, intraperitoneal administration (change of rotations vs control) [3, 6] [%] | Rotational behaviour of mice (intraperitoneal administration) ([3]; 2 mg/kg i.p.) [%] | Toxicity, intraperitoneal administration, LD50 (mice; Table 8) [mg/kg] | Toxicity, intraperitoneal administration, LD50 (mice; Table 9) [mg/kg] | Rotational behaviour of mice (intraperitoneal administration) ([3]; 0.5 mg/kg i.p.) [%] | LD50 at 24 h (in vivo) [mg/kg] | Rotational behaviour, intraperitoneal administration (change of rotations vs control) ([3]; 0.1 mg/kg i.p., ++ significant (Student test)) [%] | Despair behaviour, intraperitoneal administration (change of immobility time) ([1]; 10 mg/kg i.p.) [%] | Rotational behaviour, intraperitoneal administration (change of rotations vs control) ([3]; 3 mg/kg i.p., n.s.: not significant) [%]
1 | Cc1cc(-c2ccccc2)nnc1NCCN1CCOCC1 [Minaprine] | -31 | 5 | 5 | -53 | -82 | -82 | 63 | 63 | – | – | – | – | –
2 | N#Cc1cc(-c2ccsc2)nnc1NCCN1CCOCC1 [SR 95 274 A] | – | – | 2.6 | – | – | -82 | – | – | -60 | > 300 | – | – | –
3 | Cl.Cl.N#Cc1cc(-c2ccccc2)nnc1NCCN1CCOCC1 [SR 95191, 3-(2-Morpholinoethylamino)-4-cyano-6-phenylpyridazine dihydrochloride] | -26 | 3.9 | – | – | -107 | – | – | – | – | – | -60 | – | –
4 | CN(C)CCCN1c2ccccc2CCc2ccccc21 [iminaprine] | – | 2.4 | – | – | – | – | – | – | – | – | – | -38 | -6
